Assay [1] relates to OT-Bea-4bp (DNA, aptamer) CGATCGGGTGTGGGTGGCGTAAAGGGAGCATCG
The experiment in a line: fluorescence quenching (FAM/BHQ1 beacon), single concentration. Conditions: 120 mM NaCl, 2 mM CaCl2; highest concentration tested 200 nM; no quenching.

The test system of assay [2] is OT-Bea-1bp (DNA, aptamer) TCGGGTGTGGGTGGCGTAAAGGGAGCA
Described as above. Particulars: 120 mM NaCl, 20 mM CaCl2; 20 mM Tris-HCl pH 7.5; 50 nM probe, 500 nM OTA; negligible fluorescence change.

In assay [3] the test system is OT-Bea-4bp (DNA, aptamer) CGATCGGGTGTGGGTGGCGTAAAGGGAGCATCG
The experiment in a line: fluorescence quenching titration (FAM/BHQ1 beacon). Particulars: 120 mM NaCl, 2 mM CaCl2; 20 mM Tris-HCl pH 8.5, 0.1% Tween 20, room temperature, 50 nM probe.

Assay [4] concerns OT-Bea-5bp (DNA, aptamer) GCGATCGGGTGTGGGTGGCGTAAAGGGAGCATCGC
The experiment in a line: fluorescence quenching (FAM/BHQ1 beacon), single concentration. Conditions: 120 mM NaCl, 20 mM CaCl2; 20 mM Tris-HCl pH 7.5; 50 nM probe, 500 nM OTA; small signal change.

Assay [5] concerns OT-Bea-2bp (DNA, aptamer) ATCGGGTGTGGGTGGCGTAAAGGGAGCAT
The description is as above. Particulars: 120 mM NaCl, 20 mM CaCl2; 20 mM Tris-HCl pH 7.5; 50 nM probe, 500 nM OTA; 37% quenching.

The test system of assay [6] is OT-Bea-3bp (DNA, aptamer) GATCGGGTGTGGGTGGCGTAAAGGGAGCATC
Described as above. Particulars: 120 mM NaCl, 20 mM CaCl2; 20 mM Tris-HCl pH 7.5; 50 nM probe, 500 nM OTA; 41% quenching.

In the case of `CCCC[C@@H](C)[C@@H](OC(=O)C[C@@H](CC(=O)O)C(=O)O)[C@H](C[C@@H](C)C[C@H](O)CCCC[C@@H](O)C[C@H](O)[C@H](C)N)OC(=O)C[C@@H](CC(=O)O)C(=O)O`, in assay [1], the binding result is “no”.

With `CCCC[C@@H](C)[C@@H](OC(=O)C[C@@H](CC(=O)O)C(=O)O)[C@H](C[C@@H](C)CCCCCC[C@@H](O)C[C@H](O)[C@H](C)N)OC(=O)C[C@@H](CC(=O)O)C(=O)O`, the binding entry in assay [1] is “no”.

The term Kd denotes the equilibrium constant for the complex coming apart. High values mean weaker binding, low ones tighter binding. In the case of `C[C@@H]1Cc2c(Cl)cc(C(=O)N[C@@H](Cc3ccccc3)C(=O)O)c(O)c2C(=O)O1`, the binding entry is on record as “weak” in assay [2], “yes” in assay [4], “yes” in assay [5] and “yes” in assay [6]. Also, the Kd in assay [3] worked out at 16 ± 2 nM.

For `C[C@H]1CCCC(=O)CCC/C=C/c2cc(O)cc(O)c2C(=O)O1`, the binding entry in assay [1] is recorded as “no”.

With `C[C@@H]1Cc2ccc(C(=O)N[C@@H](Cc3ccccc3)C(=O)O)c(O)c2C(=O)O1`, in assay [1], the binding result was “no”.

These data come from article PMC9737911 (2022).
